Legend:
head lice [1] = test: In vitro immersion reflex test: louse placed in a drop of wet agent on a microscope slide; set-up: species or system Pediculus humanus capitis; conditions: water by itself
Excerpt: Driable pediculostatic agents useful in the methods and kits of the present invention are characterized by their ability to induce an immersion reflex in lice in their wet form and to keep the lice in the immersion reflex once dried. The following in vitro test can be conveniently used to determine whether any individual agent is a pediculostatic agent, and can further be used for routine screening of agents—such as those from natural products libraries and combinatorial chemical libraries—to identify those that can be used in the methods, compositions, and kits of the present invention:
1. Contact a louse with an agent suspected of being a pediculostatic agent; and
2. Observe whether the louse becomes immobile.
Observations can readily be performed using a standard inexpensive light microscope with 10× or 40× magnification. The length of time necessary to render the louse completely immobile, in minutes, is the Immersion Reflex Index of the agent tested.
Ten crawling lice were obtained from patients with head lice and each one placed on a separate microscope slide for observation under a microscope at 10× or 40× power. […] Within 6 seconds of application, they stopped all spontaneous movement. Usually within 30 seconds, and always within 60 seconds, they would not respond to contact by a probe and ceased previously visible gastrointestinal motility. […]

head lice [2] = test: In vitro test of agent dried onto lice (driable pediculostatic agent test); set-up: species or system Pediculus humanus capitis; conditions: water by itself
Excerpt: Contact a louse with a pediculostatic agent for a period of time sufficient to immobilize the louse (i.e., for at least 1× the Immersion Reflex Index of the agent);
Dry the agent onto the louse, either by air-drying or by application of heat, and observe whether the louse remains immobilized.
The period of time necessary for a particular dried agent to kill the louse can be conveniently determined by rinsing the dried agent off lice as a function of time and observing whether the rinsed lice regain mobility upon drying off.
Six crawling lice were obtained from patients with head lice and each placed in a drop of […] ® Cleanser as described in EXAMPLE 1. After 2 min., the cleanser was dried onto the lice by air drying (4 lice) or gentle warm air from a hair dryer (2 lice).

SMILES: O [water]
- induction of the immersion reflex in lice (head lice [1]): triggers the immersion reflex
- lice upon drying of the agent (head lice [2]): recover and regain mobility

— patent publication US6541455B2, “Methods and kits for removing, treating, or preventing lice with driable pediculostatic agents” (priority 1999, dated 2003)
